From US20120165331A1, “Di/tri-aza-spiro-C9-C11alkanes” (priority 2010, published 2012)
pKi: −log10 of the molar value.

Legend:
[1] = target: T1, human orexin 1 receptor (Homo sapiens, UniProt O43613); assay: Calcium accumulation in cells (FLIPR), antagonism of orexin A, human orexin 1 receptor; assay type: cell-based; settings: for pKi: calcium accumulation, antagonism of orexin A, Cheng-Prusoff corrected, read-out: FLIPR hOx1R Ki; for inhibition at 10 µM: measured at a concentration of 10 μM of compound, read-out: FLIPR hOx1R % inhibition
T1 construct: expressed in transfected cells
T1 sequence (O43613 1-425): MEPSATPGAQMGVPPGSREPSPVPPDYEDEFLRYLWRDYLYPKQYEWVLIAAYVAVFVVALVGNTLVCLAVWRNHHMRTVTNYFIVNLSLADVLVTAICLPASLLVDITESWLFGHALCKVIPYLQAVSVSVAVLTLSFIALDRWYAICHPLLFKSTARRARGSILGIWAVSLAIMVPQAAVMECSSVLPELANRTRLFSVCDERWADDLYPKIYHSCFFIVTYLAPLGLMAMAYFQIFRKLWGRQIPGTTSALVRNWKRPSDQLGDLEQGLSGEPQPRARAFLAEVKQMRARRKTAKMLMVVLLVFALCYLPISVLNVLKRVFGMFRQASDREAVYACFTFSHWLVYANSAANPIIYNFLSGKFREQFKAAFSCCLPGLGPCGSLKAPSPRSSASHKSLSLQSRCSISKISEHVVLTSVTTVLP
Experimental: (§1) Calcium Accumulation in Cells (FLIPR):
(§2) Cells expressing human orexin 1 or human orexin 2 receptors, were seeded at 8,000 cells/well in 384 well black-walled clear bottom, poly-D-lysine coated plates. After 24 h, the medium was removed and cells were washed once with phosphate buffered saline and serum-deprived overnight in assay buffer (130 mM NaCl, 5.4 mM KCl, 1.8 mM CaCl2, 0.8 mM MgSO4, 0.9 mM NaH2PO4, 25 mM glucose, 20 mM HEPES, pH 7.4) containing bovine serum albumin (1% w/v).
(§3) On the day of the experiment, the cells seeded in black plates were treated with assay buffer containing the Ca^2+ sensitive fluorescent dye Fluo-4-AM (2 μM), and probenecid (0.1 mM). After 1 h plates were washed twice with, and resuspended in, assay buffer containing probenecid (0.1 mM) using a multi plate washer. The plates were placed into a FLIPR II (Fluorometric Imaging Plate Reader, Molecular Devices, Sunnyvale, Calif., USA) and baseline fluorescence (fluorescence light units, FLU) was measured (5 measurements, 2 S each; laser excitation 488 nm at 0.6-1 W, CCD camera exposure 0.4 s) before addition of buffer alone (basal) or containing test compounds (either compound of formula I alone, agonist alone or agonist in the presence of various concentrations of compounds of formula I). Fluorescence measurements were then continued every 1 S for 120 S followed by every 4 S for 240 S.
(§4) The measurements were typically made in two sequences:
(§5) Compounds of formula I were tested usually in a concentration range from 10^−9 M to 10^−5 M.
(§6) In the second round, performed one hour later (to allow for equilibration), Orexin A was tested either in the absence (calibration curves, Orexin A agonist controls) or in the presence of compounds of formula Ito determine antagonism.
(§7) Inhibition data is expressed in Table 1 as Kd [μM], converted by the Cheng and Prusoff correction (Kd=IC50/1+(L/EC50)), where IC50 is the 50% inhibition value determined in concentration response inhibition curves, EC50 is the half maximal activation concentration determined for orexin A in concentration response curves and L is the concentration of orexin A used in inhibition experiments performed in with a submaximal concentration of orexin A in the presence of up to 8 increasing concentrations of compound of formula I. Inhibition data is also expressed in Table 1 as % inhibition value measured at a concentration of 10 μM of selected compounds of formula I.

[2] = target: T2, human orexin 2 receptor (Homo sapiens, UniProt O43614); assay: Calcium accumulation in cells (FLIPR), antagonism of orexin A, human orexin 2 receptor; assay type: cell-based; settings: for pKi: calcium accumulation, antagonism of orexin A, Cheng-Prusoff corrected, read-out: FLIPR hOx2R Ki; for inhibition at 10 µM: measured at a concentration of 10 μM of compound, read-out: FLIPR hOx2R % inhibition
T2 construct: expressed in transfected cells
T2 sequence (O43614 1-444): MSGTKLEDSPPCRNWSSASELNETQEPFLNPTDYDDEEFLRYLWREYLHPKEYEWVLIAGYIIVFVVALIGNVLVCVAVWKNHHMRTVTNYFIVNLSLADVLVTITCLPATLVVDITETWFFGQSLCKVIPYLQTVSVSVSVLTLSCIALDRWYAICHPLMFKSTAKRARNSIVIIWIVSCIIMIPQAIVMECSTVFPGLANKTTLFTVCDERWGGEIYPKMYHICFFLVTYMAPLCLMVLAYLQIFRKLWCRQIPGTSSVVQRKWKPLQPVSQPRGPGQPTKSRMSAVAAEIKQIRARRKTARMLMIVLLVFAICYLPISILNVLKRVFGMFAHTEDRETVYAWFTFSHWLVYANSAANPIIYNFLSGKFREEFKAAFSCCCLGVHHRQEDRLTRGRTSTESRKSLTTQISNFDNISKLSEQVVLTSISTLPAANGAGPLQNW
Experimental: as §1, §2, §3, §4, §5, §6, §7

Compound: COc1nc(C)cc(N2CCC3(CC2)NCCN(Cc2c[nH]c4ccccc24)C3=O)n1 [Example 1.66, 4-((1H-indol-3-yl)methyl)-9-(2-methoxy-6-methyl-pyrimidin-4-yl)-1,4,9-triazaspiro[5.5] undecan-5-one]
- pKi [1]: 5.41
- pKi [2]: 6.20

Compound: Cc1cc(C)nc(N2CCC3(CC2)NCCN(Cc2ccccc2-c2nc(C)no2)C3=O)n1 [Example 1.69, 9-(4,6-dimethyl-pyrimidin-2-yl)-4-(2-(3-methyl-1,2,4-oxadiazol-5-yl)benzyl)-1,4,9-triazaspiro[5.5] undecan-5-one]
- inhibition at 10 µM [1]: 13%
- pKi [2]: 6.63

Compound: CCc1cc(-c2nn(C)nc2CN2CCNC3(CCN(c4nc(C)cc(C)n4)CC3)C2=O)ccn1 [Example 1.75, 9-(4,6-dimethyl-pyrimidin-2-yl)-4-((5-(2-ethyl-pyridin-4-yl)-2-methyl-2H-1,2,3-triazol-4-yl)methyl)-1,4,9-triazaspiro[5.5] undecan-5-one]
- inhibition at 10 µM [1]: < 10%
- inhibition at 10 µM [2]: 35%

Compound: Cc1cc(C)nc(N2CCC3(CC2)NCCN(Cc2nocc2-c2ccccc2)C3=O)n1 [Example 1.81, 9-(4,6-dimethyl-pyrimidin-2-yl)-4-((4-phenyl-isoxazol-3-yl)methyl)-1,4,9-triazaspiro[5.5] undecan-5-one]
- inhibition at 10 µM [1]: 33%
- pKi [2]: 5.66

Compound: Cc1cc(C)nc(N2CCC3(CC2)NCCN(Cc2conc2-c2ccccc2)C3=O)n1 [Example 1.82, 9-(4,6-dimethyl-pyrimidin-2-yl)-4-((3-phenyl-isoxazol-4-yl)methyl)-1,4,9-triazaspiro[5.5] undecan-5-one]
- inhibition at 10 µM [1]: 57%
- pKi [2]: 6.18

Compound: Cc1cc(C)nc(N2CCC3(CC2)NCCN(Cc2nn(C)nc2-c2ccccc2)C3=O)n1 [Example 1.83, 9-(4,6-dimethyl-pyrimidin-2-yl)-4-((2-methyl-5-phenyl-2H-1,2,3-triazol-4-yl)methyl)-1,4,9-triazaspiro[5.5] undecan-5-one]
- pKi [1]: 5.35
- pKi [2]: 6.62

Compound: Cc1cc(C)nc(N2CCC3(CC2)OCCN(Cc2ccccc2-c2ccco2)C3=O)n1 [Example 2.3, 9-(4,6-Dimethyl-pyrimidin-2-yl)-4-(2-furan-2-yl-benzyl)-1-oxa-4,9-diaza-spiro[5.5]undecan-5-one]
- pKi [1]: 5.96
- pKi [2]: 6.85

Compound: COc1ccnc(N2CCC3(CC2)OCCN(Cc2c[nH]c4ccccc24)C3=O)n1 [Example 2.5, 4-((1H-Indol-3-yl)methyl)-9-(4-methoxypyrimidin-2-yl)-1-oxa-4,9-diazaspiro[5.5]undecan-5-one]
- pKi [1]: 5.81
- pKi [2]: 7.21

Compound: Cc1cc(C)nc(N2CCC3(CC2)OCCN(Cc2ccccc2-c2ncco2)C3=O)n1 [Example 2.9, 9-(4,6-Dimethylpyrimidin-2-yl)-4-(2-(oxazol-2-yl)benzyl)-1-oxa-4,9-diazaspiro[5.5]undecan-5-one]
- inhibition at 10 µM [1]: 42%
- pKi [2]: 6.18

Compound: Cc1cc(C)nc(N2CCC3(CC2)OCCN(Cc2nn(C)nc2-c2ccccc2)C3=O)n1 [Example 2.12, 9-(4,6-Dimethylpyrimidin-2-yl)-4-((2-methyl-5-phenyl-2H-1,2,3-triazol-4-yl)methyl)-1-oxa-4,9-diazaspiro[5.5]undecan-5-one]
- inhibition at 10 µM [1]: 16%
- pKi [2]: 6.44

Compound: Cc1cc(C)nc(N2CCC3(CC2)OCCN(Cc2c(-c4ccccc4)nnn2C)C3=O)n1 [Example 2.15, 9-(4,6-Dimethylpyrimidin-2-yl)-4-((1-methyl-4-phenyl-1H-1,2,3-triazol-5-yl)methyl)-1-oxa-4,9-diazaspiro[5.5]undecan-5-one]
- inhibition at 10 µM [1]: 10%
- pKi [2]: 5.67

Compound: Cc1cc(C)nc(N2CCC3(CC2)OCCN(Cc2nnn(C)c2-c2ccccc2)C3=O)n1 [Example 2.16, 9-(4,6-Dimethylpyrimidin-2-yl)-4-((1-methyl-5-phenyl-1H-1,2,3-triazol-4-yl)methyl)-1-oxa-4,9-diazaspiro[5.5]undecan-5-one]
- inhibition at 10 µM [1]: 16%
- inhibition at 10 µM [2]: 27%

Compound: CCc1ccnc(N2CCC3(CC2)OCCN(Cc2c[nH]c4ccccc24)C3=O)n1 [Example 2.22, 4-((1H-indol-3-yl)methyl)-9-(4-ethylpyrimidin-2-yl)-1-oxa-4,9-diazaspiro[5.5]undecan-5-one]
- pKi [1]: 5.56
- pKi [2]: 6.60

Compound: Cc1cnc(N2CCC3(CC2)OCCN(Cc2c[nH]c4ccccc24)C3=O)nc1C [Example 2.24, 4-((1H-indol-3-yl)methyl)-9-(4,5-dimethylpyrimidin-2-yl)-1-oxa-4,9-diazaspiro[5.5]undecan-5-one]
- pKi [1]: 5.78
- pKi [2]: 6.74

Compound: Cc1cc(C)nc(N2CCC3(CC2)OCCN(Cc2nocc2-c2ccccc2)C3=O)n1 [Example 2.25, 9-(4,6-dimethylpyrimidin-2-yl)-4-((4-phenylisoxazol-3-yl)methyl)-1-oxa-4,9-diazaspiro[5.5]undecan-5-one]
- pKi [1]: 5.57
- pKi [2]: 6.43

Compound: Cc1cc(C)nc(N2CCC3(CC2)OCCN(Cc2conc2-c2ccccc2)C3=O)n1 [Example 2.26, 9-(4,6-dimethylpyrimidin-2-yl)-4-((3-phenylisoxazol-4-yl)methyl)-1-oxa-4,9-diazaspiro[5.5]undecan-5-one]
- pKi [1]: 5.93
- pKi [2]: 6.83

Compound: N#Cc1ccnc(N2CCC3(CCN(Cc4c[nH]c5ccccc45)C3=O)CC2)c1 [Example 3.3, 2-(2-((1H-Indol-3-yl)methyl)-1-oxo-2,8-diazaspiro[4.5]decan-8-yl)isonicotinonitrile]
- inhibition at 10 µM [1]: 27%
- pKi [2]: 6.30

Compound: COc1cccc(N2CCC3(CCN(Cc4c[nH]c5ccccc45)C3=O)CC2)n1 [Example 3.4, 2-((1H-Indol-3-yl)methyl)-8-(6-methoxypyridin-2-yl)-2,8-diazaspiro[4.5]decan-1-one]
- pKi [1]: 5.42
- pKi [2]: 6.54

Compound: Cc1ccnc(N2CCC3(CCN(Cc4c[nH]c5ccccc45)C3=O)CC2)n1 [Example 3.5, 2-((1H-Indol-3-yl)methyl)-8-(4-methylpyrimidin-2-yl)-2,8-diazaspiro[4.5]decan-1-one]
- inhibition at 10 µM [1]: 25%
- pKi [2]: 6.53

Compound: O=C1N(Cc2ccccc2-c2ccccc2)CCC12CCN(c1cnc3ccccc3n1)CC2 [Example 3.6, 2-(biphenyl-2-ylmethyl)-8-(quinoxalin-2-yl)-2,8-diazaspiro[4.5]decan-1-one]
- pKi [1]: 5.79
- pKi [2]: 6.11

Compound: Cn1c(N2CCC3(CCN(Cc4ccccc4-c4ccccc4)C3=O)CC2)nc2ccccc21 [Example 3.8, 2-(Biphenyl-2-ylmethyl)-8-(1-methyl-1H-benzo[d]imidazol-2-yl)-2,8-diazaspiro[4.5]decan-1-one]
- pKi [1]: 6.30
- pKi [2]: 6.19

Compound: O=C1N(Cc2ccccc2-c2ccccc2)CCC12CCN(c1nc3ccccc3[nH]1)CC2 [Example 3.9, 8-(1H-Benzo[d]imidazol-2-yl)-2-(biphenyl-2-ylmethyl)-2,8-diazaspiro[4.5]decan-1-one]
- pKi [1]: 6.46
- pKi [2]: 6.14

Compound: O=C1N(Cc2c[nH]c3ccccc23)CCC12CCN(c1nc3ccccc3[nH]1)CC2 [Example 3.12, 8-(1H-Benzoimidazol-2-yl)-2-(1H-indol-3-ylmethyl)-2,8-diaza-spiro[4.5]decan-1-one]
- pKi [1]: 5.30
- pKi [2]: 6.42
